Measurements taken from patent US12612372B2, “Oxopyridazinyl-phenyl-carbonohydrazonoyl dicyanide compound and use thereof” (KOREA INSTITUTE OF SCIENCE AND TECHNOLOGY, priority 2020, dated 2026).

Tests used:
[1] = Liver microsome stability, mouse; assay type: in vitro ADME; conditions: mouse liver microsomes 0.25 mg/mL, 1 μM compound, 37° C., 30 minutes, NADPH
Description: (§1) The stability of liver microsomes due to the compounds prepared according to Examples 1 to 14 was confirmed. Specifically, four types of liver microsomes (human, dog, rat, and mouse, each 0.25 mg/mL), a 0.1 M phosphate buffer solution (pH 7.4), and each of the compounds at a concentration of 1 μM were mixed and pre-cultured at 37° C. for 5 minutes and further cultured at 37° C. for 30 minutes together with an NADPH generation system solution added thereto. Thereafter, the reaction was terminated by adding an acetonitrile solution containing an internal standard material (chlorpropamide) and centrifuged for 5 minutes (14,000 rpm, 4° C.), and then a supernatant was injected into an LC-MS/MS system for analysis of substrate drugs to thereby evaluate metabolic stability due to 8 types of compounds.
(§2) The amount of the substrate remaining after the reaction was analyzed using the Shimadzu Nexera XR system and TSQ Vantage (Thermo). In an HPLC column, Kinetex XB-C18 (2.1 mm×100 mm, particle size of 2.6 μm; Phenomenex, USA) was used, and mobile phases were (A) distilled water containing 0.1% formic acid and (B) acetonitrile containing 0.1% formic acid. Analyst software (version 1.6.3) and Xcalibur (version 1.6.1) were used for data analysis.

[2] = Liver microsome stability, dog; assay type: in vitro ADME; conditions: dog liver microsomes 0.25 mg/mL, 1 μM compound, 37° C., 30 minutes, NADPH
Description: as §1, §2

CYP2C9 = target: T1, CYP2C9 (Homo sapiens, UniProt P11712); assay: CYP coenzyme activity in human liver microsomes, CYP2C9; assay type: in vitro ADME; conditions: 10 μM compound, human liver microsomes 0.25 mg/mL, substrate diclofenac, 15 minutes
T1 construct: human liver microsomes (0.25 mg/mL); from tissue; host or cells: human liver microsomes
T1 sequence (P11712 whole entry): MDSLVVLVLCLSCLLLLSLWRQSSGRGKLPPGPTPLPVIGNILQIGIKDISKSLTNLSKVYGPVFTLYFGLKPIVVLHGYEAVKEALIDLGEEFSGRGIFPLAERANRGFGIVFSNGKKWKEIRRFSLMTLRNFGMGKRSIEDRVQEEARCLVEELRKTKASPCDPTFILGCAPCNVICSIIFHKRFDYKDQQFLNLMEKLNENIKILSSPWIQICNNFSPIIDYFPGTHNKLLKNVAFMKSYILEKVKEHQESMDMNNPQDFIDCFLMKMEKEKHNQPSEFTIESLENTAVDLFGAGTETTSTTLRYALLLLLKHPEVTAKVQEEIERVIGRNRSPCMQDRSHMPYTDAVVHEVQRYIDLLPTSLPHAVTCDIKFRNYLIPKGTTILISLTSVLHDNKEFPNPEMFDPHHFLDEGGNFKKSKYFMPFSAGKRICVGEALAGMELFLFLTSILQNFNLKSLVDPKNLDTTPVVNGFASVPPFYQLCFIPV
Description: (§3) Specifically, human liver microsomes (0.25 mg/mL), a 0.1 M phosphate buffer solution (pH 7.4), a substrate drug cocktail of five types of drug metabolism enzymes (50 μM phenacetin, 10 μM diclofenac, 100 μM S-mephenytoin, 5 μM dextromethorphan, and 2.5 μM midazolam), and the compound at a concentration of 0 μM or 10 μM were mixed and pre-cultured at 37° C. for 5 minutes, and then further cultured at 37° C. for 15 minutes together with an NADPH generation system solution added thereto. Thereafter, the reaction was terminated by adding an acetonitrile solution containing an internal standard material (terfenadine) and centrifuged for 5 minutes (14,000 rpm, 4° C.), and then a supernatant was injected into an LC-MS/MS system for simultaneous analysis of metabolites of the substrate drugs to thereby evaluate the inhibitory effects on drug metabolism.
(§4) Metabolites of each CYP coenzyme indicator drug generated through the reaction were analyzed using the Shimadzu Nexera XR system and TSQ Vantage (Thermo). In an HPLC column, Kinetex C18 (2.1 mm×100 mm, 2.6 μm particle size; Phenomenex, USA) was used, and mobile phases were (A) distilled water containing 0.1% formic acid and (B) acetonitrile containing 0.1% formic acid, and a gradient program shown in Table 3 was applied thereto.
(§5) The generated metabolites were quantified using a multiple reaction monitoring (MRM) quantification mode, and Xcalibur (version 1.6.1) was used for data analysis. In order to express the inhibitory effects of the novel compounds prepared according to the examples of the present invention on CYP coenzyme activity, CYP coenzyme activities (%) with respect to the control group not treated with any compound are shown in Table 4 below.

[3] = Liver microsome stability, human; assay type: in vitro ADME; conditions: human liver microsomes 0.25 mg/mL, 1 μM compound, 37° C., 30 minutes, NADPH
Description: as §1, §2

CYP2C19 = target: T2, CYP2C19 (Homo sapiens, UniProt P33261); assay: CYP coenzyme activity in human liver microsomes, CYP2C19; assay type: in vitro ADME; conditions: 10 μM compound, human liver microsomes 0.25 mg/mL, substrate S-mephenytoin, 15 minutes
T2 construct: human liver microsomes (0.25 mg/mL); from tissue; host or cells: human liver microsomes
T2 sequence (P33261 whole entry): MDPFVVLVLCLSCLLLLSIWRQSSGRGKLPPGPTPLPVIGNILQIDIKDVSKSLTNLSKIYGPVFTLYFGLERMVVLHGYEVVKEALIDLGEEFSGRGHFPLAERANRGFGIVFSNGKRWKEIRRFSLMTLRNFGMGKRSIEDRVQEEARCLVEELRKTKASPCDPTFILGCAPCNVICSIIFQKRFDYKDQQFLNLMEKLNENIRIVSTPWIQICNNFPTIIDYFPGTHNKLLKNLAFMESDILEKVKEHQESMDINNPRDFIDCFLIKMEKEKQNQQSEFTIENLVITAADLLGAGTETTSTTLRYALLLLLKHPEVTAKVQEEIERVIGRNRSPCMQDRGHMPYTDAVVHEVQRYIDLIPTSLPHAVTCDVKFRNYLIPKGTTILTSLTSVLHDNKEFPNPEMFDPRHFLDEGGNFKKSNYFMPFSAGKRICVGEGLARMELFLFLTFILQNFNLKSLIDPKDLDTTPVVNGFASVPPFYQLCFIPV
Description: as §3, §4, §5

CYP3A4 = target: T3, CYP3A4 (Homo sapiens, UniProt P08684); assay: CYP coenzyme activity in human liver microsomes, CYP3A4; assay type: in vitro ADME; conditions: 10 μM compound, human liver microsomes 0.25 mg/mL, substrate midazolam, 15 minutes
T3 construct: human liver microsomes (0.25 mg/mL); from tissue; host or cells: human liver microsomes
T3 sequence (P08684 whole entry): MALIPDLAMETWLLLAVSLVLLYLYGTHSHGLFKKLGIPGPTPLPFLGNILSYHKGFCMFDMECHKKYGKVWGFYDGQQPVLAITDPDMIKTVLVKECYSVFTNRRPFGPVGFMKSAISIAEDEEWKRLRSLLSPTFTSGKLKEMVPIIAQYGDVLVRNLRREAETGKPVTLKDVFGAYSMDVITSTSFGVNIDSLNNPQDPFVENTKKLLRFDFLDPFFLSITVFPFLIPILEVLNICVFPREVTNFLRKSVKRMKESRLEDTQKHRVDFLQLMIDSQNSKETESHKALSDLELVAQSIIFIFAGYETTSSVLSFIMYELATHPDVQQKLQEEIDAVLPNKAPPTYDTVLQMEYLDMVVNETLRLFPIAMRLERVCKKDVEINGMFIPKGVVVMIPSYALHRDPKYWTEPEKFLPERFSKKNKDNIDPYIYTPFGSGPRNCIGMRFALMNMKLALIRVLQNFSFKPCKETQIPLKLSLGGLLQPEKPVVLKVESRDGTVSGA
Description: as §3, §4, §5

[4] = Liver microsome stability, rat; assay type: in vitro ADME; conditions: rat liver microsomes 0.25 mg/mL, 1 μM compound, 37° C., 30 minutes, NADPH
Description: as §1, §2

Tau-BiFC cells = assay: Cell viability (stained nuclei count) in tau-BiFC cells; conditions: 10 μM compound; stained nuclei relative to Forskolin-only group (100%), 48 hours
Description: (§6) In order to select novel tau protein aggregation—inhibiting substances, tau-BiFC cell model, in which formation of tau oligomers in living cells is easily observed, was used. Tau-BiFC cells were aliquoted into a 384-well plate. […] After 48 hours, nuclei in the cells were stained using Hoechst (at a treatment concentration of 2 μg/mL), and BiFC fluorescence intensity was automatically measured using Operetta (PerkinElmer) to count stained nuclei in each well out of the entire well plate. […] Furthermore, the degree of cytotoxicity induced by the newly synthesized compound was also measured based on the 100% cell viability of the group treated only with Forskolin as a reference, and the cytotoxicity value of each compound was calculated using the equation “(number of stained nuclei in group treated with compound/number of stained nuclei in group treated with Forskolin)×100”.
(§7) After 48 hours, tau protein aggregation reaction and degrees of cytotoxicity were analyzed by observing images of the cells. IC50 and toxicity of the compounds were analyzed by nonlinear regression analysis of Prism software (Graph Pad).

CYP2D6 = target: T4, CYP2D6 (Homo sapiens, UniProt P10635); assay: CYP coenzyme activity in human liver microsomes, CYP2D6; assay type: in vitro ADME; conditions: 10 μM compound, human liver microsomes 0.25 mg/mL, substrate dextromethorphan, 15 minutes
T4 construct: human liver microsomes (0.25 mg/mL); from tissue; host or cells: human liver microsomes
T4 sequence (P10635 whole entry): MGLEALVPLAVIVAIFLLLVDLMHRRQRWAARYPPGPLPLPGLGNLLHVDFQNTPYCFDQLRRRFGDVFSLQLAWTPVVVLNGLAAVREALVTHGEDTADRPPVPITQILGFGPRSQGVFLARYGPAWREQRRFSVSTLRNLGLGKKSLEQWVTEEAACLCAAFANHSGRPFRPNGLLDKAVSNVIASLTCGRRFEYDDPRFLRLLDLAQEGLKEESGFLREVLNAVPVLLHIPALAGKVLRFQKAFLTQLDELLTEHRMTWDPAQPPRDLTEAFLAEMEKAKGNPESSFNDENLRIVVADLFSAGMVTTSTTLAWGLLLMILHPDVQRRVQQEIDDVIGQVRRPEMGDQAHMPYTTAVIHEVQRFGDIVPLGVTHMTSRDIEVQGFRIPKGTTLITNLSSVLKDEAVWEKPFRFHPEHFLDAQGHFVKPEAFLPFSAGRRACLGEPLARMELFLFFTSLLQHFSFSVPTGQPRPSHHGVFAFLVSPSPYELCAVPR
Description: as §3, §4, §5

CYP1A2 = target: T5, CYP1A2 (Homo sapiens, UniProt P05177); assay: CYP coenzyme activity in human liver microsomes, CYP1A2; assay type: in vitro ADME; conditions: 10 μM compound, human liver microsomes 0.25 mg/mL, substrate phenacetin, 15 minutes
T5 construct: human liver microsomes (0.25 mg/mL); from tissue; host or cells: human liver microsomes
T5 sequence (P05177 1-516): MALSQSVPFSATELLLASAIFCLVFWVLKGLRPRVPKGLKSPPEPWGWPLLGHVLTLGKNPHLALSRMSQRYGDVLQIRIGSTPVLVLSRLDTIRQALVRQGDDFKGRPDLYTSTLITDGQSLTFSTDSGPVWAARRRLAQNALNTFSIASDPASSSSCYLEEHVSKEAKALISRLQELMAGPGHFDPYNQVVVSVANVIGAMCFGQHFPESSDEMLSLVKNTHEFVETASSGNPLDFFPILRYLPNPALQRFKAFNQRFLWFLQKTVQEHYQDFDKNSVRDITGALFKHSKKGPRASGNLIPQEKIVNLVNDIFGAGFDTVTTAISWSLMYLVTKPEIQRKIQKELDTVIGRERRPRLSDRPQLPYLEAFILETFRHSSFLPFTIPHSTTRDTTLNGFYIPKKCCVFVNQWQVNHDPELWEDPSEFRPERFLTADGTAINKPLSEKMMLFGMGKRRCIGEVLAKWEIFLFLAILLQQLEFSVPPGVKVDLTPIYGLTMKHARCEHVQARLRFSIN
Description: as §3, §4, §5

tau protein = target: T6, tau protein (Homo sapiens, UniProt P10636); assay: Tau-BiFC cell model, Forskolin-induced tau protein aggregation; assay type: cell-based; conditions: for Tau BiFC in cells Response (%, @10 μM): 10 μM compound, BiFC fluorescence relative to Forskolin-only group (100% tau protein-aggregated state), 48 hours
T6 construct: fused on or other part: Split Venus fragments VN173 and VC155, each fused to one copy of tau as BiFC reporter halves
T6 sequence (P10636 2-441 isoform P10636-8 limits assumed): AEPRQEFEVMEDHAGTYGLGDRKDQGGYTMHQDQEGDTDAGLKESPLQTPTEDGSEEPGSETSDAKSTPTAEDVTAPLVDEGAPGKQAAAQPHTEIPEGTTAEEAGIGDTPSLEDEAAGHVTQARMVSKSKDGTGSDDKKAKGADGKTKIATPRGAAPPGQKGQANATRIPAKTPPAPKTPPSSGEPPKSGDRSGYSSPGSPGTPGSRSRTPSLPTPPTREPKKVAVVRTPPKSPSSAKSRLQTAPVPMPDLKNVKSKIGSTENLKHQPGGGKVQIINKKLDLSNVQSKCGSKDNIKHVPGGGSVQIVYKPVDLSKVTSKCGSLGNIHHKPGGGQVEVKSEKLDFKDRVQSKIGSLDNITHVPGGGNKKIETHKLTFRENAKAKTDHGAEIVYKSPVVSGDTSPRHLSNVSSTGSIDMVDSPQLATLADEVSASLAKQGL
Description: as §6, §7

Row | Structure (SMILES) | Mouse (%) amount remaining after the reaction [1] [%] | Dog (%) amount remaining after the reaction [2] [%] | CYP2C9 activity (%) with respect to control group not treated with any compound (CYP2C9) [%] | Human (%) amount remaining after the reaction [3] [%] | CYP2C19 activity (%) with respect to control group not treated with any compound (CYP2C19) [%] | CYP3A4 activity (%) with respect to control group not treated with any compound (CYP3A4) [%] | Rat (%) amount remaining after the reaction [4] [%] | Cell viability (%, @10 μM) (Tau-BiFC cells) [%] | CYP2D6 activity (%) with respect to control group not treated with any compound (CYP2D6) [%] | CYP1A2 activity (%) with respect to control group not treated with any compound (CYP1A2) [%] | IC50 (tau protein) [µM] | Tau BiFC in cells Response (%, @10 μM) (tau protein) [%]
1 | CC(C)N1N=C(c2ccc(NN=C(C#N)C#N)cc2)CCC1=O [Example 1, (4-(1-isopropyl-6-oxo-1,4,5,6-tetrahydropyridazin-3-yl)phenyl)carbonohydrazonoyl dicyanide] | >100 | >100 | 70.4 | 6.4 | 70.8 | 81.7 | >100 | 110.1 | 74.6 | 79 |  | 
2 | CC1CC(=O)N(C(C)C)N=C1c1ccc(NN=C(C#N)C#N)cc1 (stereo not shown) [Example 2, (4-(1-isopropyl-4-methyl-6-oxo-1,4,5,6-tetrahydropyridazin-3-yl)phenyl)carbonohydrazonoyl dicyanide] | 89 | >100 | 65.7 | 63.6 | 64.7 | 74.6 | 92.5 | 102.8 | 84.9 | 80.5 | 0.4 | 0
3 | CCN1N=C(c2ccc(NN=C(C#N)C#N)cc2)C(C)CC1=O (stereo not shown) [Example 3, (4-(1-ethyl-4-methyl-6-oxo-1,4,5,6-tetrahydropyridazin-3-yl)phenyl)carbonohydrazonoyl dicyanide] | 89.6 | 91.9 | 99.9 | 90.3 | >100 | >100 | 89.6 | 68.2 | 93.6 | >100 | 0.09 | 0
4 | CC1CC(=O)N(CC(F)(F)F)N=C1c1ccc(NN=C(C#N)C#N)cc1 (stereo not shown) [Example 4, (4-(4-methyl-6-oxo-1-(2,2,2-trifluoroethyl)-1,4,5,6-tetrahydropyridazin-3-yl)phenyl)carbonohydrazonoyl dicyanide] | 89 | 95.6 | 55.6 | 98.2 | 45.5 | 74.2 | 96.8 | 98.7 | 62.1 | 74.8 | 0.45 | 0
5 | COCCN1N=C(c2ccc(NN=C(C#N)C#N)cc2)C(C)CC1=O (stereo not shown) [Example 5, (4-(1-(2-methoxyethyl)-4-methyl-6-oxo-1,4,5,6-tetrahydropyridazin-3-yl)phenyl)carbonohydrazonoyl dicyanide] | 94.9 | >100 | 71.5 | 30.9 | 63.4 | 74.2 | 90.9 | 95.7 | 70.4 | 70 | 0.09 | 15.6
6 | CC1CC(=O)N(C2CC2)N=C1c1ccc(NN=C(C#N)C#N)cc1 (stereo not shown) [Example 6, (4-(1-cyclopropyl-4-methyl-6-oxo-1,4,5,6-tetrahydropyridazin-3-yl)phenyl)carbonohydrazonoyl dicyanide] | 92.7 | 99.5 | 74.2 | 85 | 74.2 | 79.5 | 95.8 | 62.9 | 72.6 | 78.6 | 0.07 | 0
